Assays:
[1] = biological target: full-length MALT1 protein (Strep-MALT1(1-824)-His) (Homo sapiens (Human), UniProt Q9UDY8); experiment: MALT1 Biochemical Protease Assay (Ac-LRSR-AMC substrate); settings: 10 nM FL MALT1, 200 μM Ac-LRSR-AMC, 4 h at RT; read-out: MALT1_Biochemical activity (Ac-LRSR-amc) IC50
Description: The tetrapeptide LRSR is coupled to AMC (7-amino-4-methylcoumarin) and provides a quenched, fluorescent substrate for the MALT1 protease (SM Biochemicals). […] Test compound concentrations ranged from 30 μM to 0.5 nM using 11 dilution steps (1:3). Background signal was measured from control wells containing assay buffer without enzyme which functions as low control (LC). High control (HC) values were generated using the reaction with enzyme but no compound treatment. Compounds were pre-incubated with MALT1 enzyme for 50 minutes at RT. […] The reaction was subsequently incubated for 4 h at RT and fluorescence was measured.
LC=Median of the low control values
An estimate of the slope of the plot in terms of the Hill coefficient was also obtained. IC50 Calculation:
[formula] With • UB=upper bound • LB=lower bound Used in “Lexis Dose Response Curve Fitting” Version 1.0.

[2] = system: IL6 secretion by TMD8 ABC-DLBCL cells; experiment: Human IL6 Mesoscale assay (TMD-8); format: cell-based; settings: TMD-8 cells, 24 h
Description: (§1) NFKB signaling regulates the secretion of multiple cytokines, including IL6 and IL10. Secretion of the cytokines IL6 and IL10 by TMD8 or OCI-LY3 ABC-DLBCL cells was measured using a mesoscale assay. Inhibition of NFKB signaling by MALT1 or BTK inhibitors results in a decrease of IL6/10 secretion.
(§2) TMD8 or OCI-LY3 cells were propagated in RPMI-1640 (Sigma Aldrich) supplemented with 10% fetal bovine serum (HyClone), 1 mM sodium pyruvate (Invitrogen), 2 mM L-glutamine (Sigma Aldrich) and 1% PenStrep (Sigma Aldrich). Cell passage number should not exceed 30. Cells should be kept between 0.5-2.5 million cells per mL during culturing and cells should be supplemented every 2-3 days with fresh 50 μM beta-mercaptoenthanol. No beta-mercaptoethanol was used during the mesoscale assay.
(§3) For the Mesoscale assay, 100,000 TMD8 or OCI-LY3 cells were seeded per well into black-colored 96-well plates with clear bottom (Corning #3904) and test compounds were added in 9 dilution steps (1:2) ranging from 15 μM to 58.6 nM (final DMSO concentration 0.3%). DMSO control wells were used to determine the maximum signal (High Control (HC)). Treatment with the BTK inhibitor RN486 in a dose range from 30 nM to 131 pM (9 dilutions of 1:2) served as a positive control for NFKB pathway inhibition and was used to determine the maximum inhibition (Low Control (LC)). Compounds and cells were incubated for 24 h at 37° C. and 5% CO2 (assay volume is 150 μL). After 24 h of incubation 50 μL of the supernatant was transferred to a MSD plate (V-Plex Proinflammation Panel 1 (human) kit, Mesoscale (MSD)) and incubated for 2 h with vigorous shaking (600 rpm) at room temperature. Following incubation, plates were washed 3× with PBS+0.05% Tween-20 and 25 μL detection antibody solution (IL6 & IL10 antibodies in diluent 3 (MSD)) was added per well followed by 2 h of incubation with vigorous shaking (600 rpm) at room temperature. After 3× washes with PBS+0.05% Tween-20, plates were incubated with 150 μL 2× Read Buffer T and read on SECTOR imager.

[3] = system: IL10 secretion by TMD8 ABC-DLBCL cells; experiment: Human IL10 Mesoscale assay (TMD-8); format: cell-based; settings: TMD-8 cells, 24 h
Description: as §1, §2, §3

full-length MALT1 protein (Strep-MALT1(1-824)-His), sequence (Q9UDY8 whole entry): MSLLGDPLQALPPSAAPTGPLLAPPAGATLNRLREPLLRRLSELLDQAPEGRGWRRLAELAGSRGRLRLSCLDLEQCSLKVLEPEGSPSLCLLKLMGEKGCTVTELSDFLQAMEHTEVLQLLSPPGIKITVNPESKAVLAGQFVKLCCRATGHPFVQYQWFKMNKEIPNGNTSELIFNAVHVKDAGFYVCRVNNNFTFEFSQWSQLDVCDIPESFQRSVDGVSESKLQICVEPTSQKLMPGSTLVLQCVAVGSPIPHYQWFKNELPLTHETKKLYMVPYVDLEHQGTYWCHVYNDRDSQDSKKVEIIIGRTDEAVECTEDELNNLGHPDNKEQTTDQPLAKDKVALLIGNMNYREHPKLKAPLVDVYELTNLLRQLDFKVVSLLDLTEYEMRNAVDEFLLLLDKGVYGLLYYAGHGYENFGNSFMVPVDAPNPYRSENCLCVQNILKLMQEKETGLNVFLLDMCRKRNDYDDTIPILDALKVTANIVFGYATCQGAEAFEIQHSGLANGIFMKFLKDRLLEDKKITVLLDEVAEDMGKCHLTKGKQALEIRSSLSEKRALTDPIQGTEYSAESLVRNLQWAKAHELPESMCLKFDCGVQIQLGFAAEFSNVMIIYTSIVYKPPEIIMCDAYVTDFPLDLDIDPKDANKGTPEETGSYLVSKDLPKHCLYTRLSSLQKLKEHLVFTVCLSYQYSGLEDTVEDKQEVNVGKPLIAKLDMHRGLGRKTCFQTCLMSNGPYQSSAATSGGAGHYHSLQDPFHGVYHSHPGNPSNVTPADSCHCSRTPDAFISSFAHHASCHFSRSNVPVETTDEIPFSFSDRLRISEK

| IC50 [1] | IC50 ([2]; Homo sapiens, TMD8) | IC50 ([3]; Homo sapiens, TMD8) | Compound | IC50 [2] | IC50 [3] |
| --- | --- | --- | --- | --- | --- |
| 0.209 µM | 0.126 µM | 0.047 µM | O=C(Nc1cnc(-n2nccn2)c(Cl)c1)c1cnn(-c2cccc3c(C(F)F)nccc23)c1C(F)(F)F [Cpd 400, N-(5-chloro-6-(2H-1,2,3-triazol-2-yl)pyridin-3-yl)-1-(1-(difluoromethyl)isoquinolin-5-yl)-5-(trifluoromethyl)-1H-pyrazole-4-carboxamide] |  |  |
| 0.214 µM | 0.107 µM | 0.017 µM | O=C(Nc1cnc(-n2nccn2)c(Cl)c1)c1cnn(-c2ccc(C(F)F)c3ncccc23)c1C(F)(F)F [Cpd 397, N-(5-chloro-6-(2H-1,2,3-triazol-2-yl)pyridin-3-yl)-1-(8-(difluoromethyl)quinolin-5-yl)-5-(trifluoromethyl)-1H-pyrazole-4-carboxamide] |  |  |
| 0.891 µM | 0.724 µM | 0.851 µM | O=C(Nc1cnc(-n2nccn2)c(Cl)c1)c1cnn(-c2cccc3snnc23)c1C(F)(F)F [Cpd 231, 1-(benzo[d][1,2,3]thiadiazol-4-yl)-N-(5-chloro-6-(2H-1,2,3-triazol-2-yl)pyridin-3-yl)-5-(trifluoromethyl)-1H-pyrazole-4-carboxamide] |  |  |
| 0.447 µM | 0.051 µM | 0.039 µM | O=C(Nc1cnc(-n2nccn2)c(Cl)c1)c1cnn(-c2cccc3nccc(C(F)F)c23)c1C(F)(F)F [Cpd 396, N-(5-chloro-6-(2H-1,2,3-triazol-2-yl)pyridin-3-yl)-1-(4-(difluoromethyl)quinolin-5-yl)-5-(trifluoromethyl)-1H-pyrazole-4-carboxamide] |  |  |
| 0.107 µM | 0.056 µM | 0.021 µM | NC(=O)c1cc(-n2ncc(C(=O)Nc3cnc(-n4nccn4)c(Cl)c3)c2C(F)(F)F)c2ccccc2n1 [Cpd 386, 4-(4-((5-chloro-6-(2H-1,2,3-triazol-2-yl)pyridin-3-yl)carbamoyl)-5-(trifluoromethyl)-1H-pyrazol-1-yl)quinoline-2-carboxamide] |  |  |
| 0.447 µM | 0.389 µM | 0.182 µM | CC(=O)c1nccc2c(-n3ncc(C(=O)Nc4cnc(-n5nccn5)c(Cl)c4)c3C(F)(F)F)cccc12 [Cpd 378, 1-(1-acetylisoquinolin-5-yl)-N-(5-chloro-6-(2H-1,2,3-triazol-2-yl)pyridin-3-yl)-5-(trifluoromethyl)-1H-pyrazole-4-carboxamide] |  |  |
| 0.195 µM | > 15.1 µM | 1.91 µM | O=C(Nc1cnc(-n2nccn2)c(Cl)c1)c1cnn(-c2c(F)ccc3nccn23)c1C(F)(F)F [Cpd 205, N-(5-chloro-6-(2H-1,2,3-triazol-2-yl)pyridin-3-yl)-1-(6-fluoroimidazo[1,2-a]pyridin-5-yl)-5-(trifluoromethyl)-1H-pyrazole-4-carboxamide] |  |  |
| 0.288 µM | > 1.51 µM | 0.38 µM | N#Cc1ccc2c(-n3ncc(C(=O)Nc4cnc(-n5nccn5)c(Cl)c4)c3C(F)(F)F)cccc2n1 [Cpd 413, N-(5-chloro-6-(2H-1,2,3-triazol-2-yl)pyridin-3-yl)-1-(2-cyanoquinolin-5-yl)-5-(trifluoromethyl)-1H-pyrazole-4-carboxamide] |  |  |
| 0.126 µM | 3.71 µM | 2.75 µM | O=C(Nc1cnc(-n2nccn2)c(Cl)c1)c1cnn(-c2nsc3ncccc23)c1C(F)(F)F [Cpd 279, N-(5-chloro-6-(2H-1,2,3-triazol-2-yl)pyridin-3-yl)-1-(isothiazolo[5,4-b]pyridin-3-yl)-5-(trifluoromethyl)-1H-pyrazole-4-carboxamide] |  |  |

Further lines, the compound ahead of its results:

| Compound | IC50 [1] | IC50 ([2]; Homo sapiens, TMD8) | IC50 ([3]; Homo sapiens, TMD8) | IC50 [2] | IC50 [3] |
| --- | --- | --- | --- | --- | --- |
| Cc1cc(NC(=O)c2cnn(-c3cccc4ncccc34)c2C(F)(F)F)cnc1-c1nnn(C)n1 [Cpd 305, N-(5-methyl-6-(2-methyl-2H-tetrazol-5-yl)pyridin-3-yl)-1-(quinolin-5-yl)-5-(trifluoromethyl)-1H-pyrazole-4-carboxamide] | 0.062 µM | > 15.1 µM | 7.94 µM |  |  |
| O=C(Nc1ccnc(N2CCOCC2)c1)c1cnn(-c2cccc3c(=O)[nH]ccc23)c1C(F)(F)F [Cpd 361, N-(2-morpholinopyridin-4-yl)-1-(1-oxo-1,2-dihydroisoquinolin-5-yl)-5-(trifluoromethyl)-1H-pyrazole-4-carboxamide] | 12.3 µM | 1.26 µM | 0.617 µM |  |  |
| Cc1cc(-n2nccn2)c(Cl)cc1NC(=O)c1cnn(-c2cccc3c(=O)[nH]ccc23)c1C(F)(F)F [Cpd 171, N-(5-chloro-2-methyl-4-(2H-1,2,3-triazol-2-yl)phenyl)-1-(1-oxo-1,2-dihydroisoquinolin-5-yl)-5-(trifluoromethyl)-1H-pyrazole-4-carboxamide] | 0.071 µM | 0.091 µM | 0.06 µM |  |  |
| Cn1nc(-n2ncc(C(=O)Nc3cnc(-n4nccn4)c(C#N)c3)c2C(F)(F)F)c2cccnc21 [Cpd 265, N-(5-cyano-6-(2H-1,2,3-triazol-2-yl)pyridin-3-yl)-1-(1-methyl-1H-pyrazolo[3,4-b]pyridin-3-yl)-5-(trifluoromethyl)-1H-pyrazole-4-carboxamide] | 0.166 µM | > 1.51 µM | 0.12 µM |  |  |
| Cc1cc2nccc(-n3ncc(C(=O)Nc4cnc(-n5nccn5)c(C#N)c4)c3C(F)(F)F)c2o1 [Cpd 151, N-(5-cyano-6-(2H-1,2,3-triazol-2-yl)pyridin-3-yl)-1-(2-methylfuro[3,2-b]pyridin-7-yl)-5-(trifluoromethyl)-1H-pyrazole-4-carboxamide] | 0.214 µM | 0.224 µM | 0.2 µM |  |  |
| N#Cc1cc(NC(=O)c2cnn(-c3ncc(F)c4ccccc34)c2C(F)(F)F)cnc1-n1nccn1 [Cpd 263, N-(5-cyano-6-(2H-1,2,3-triazol-2-yl)pyridin-3-yl)-1-(4-fluoroisoquinolin-1-yl)-5-(trifluoromethyl)-1H-pyrazole-4-carboxamide] | 0.191 µM | > 0.302 µM | > 0.302 µM |  |  |
| N#Cc1cc(NC(=O)c2cnn(-c3nccn4ccnc34)c2C(F)(F)F)cnc1-n1nccn1 [Cpd 103, N-(5-Cyano-6-(2H-1,2,3-triazol-2-yl)pyridin-3-yl)-1-(imidazo[1,2-a]pyrazin-8-yl)-5-(trifluoromethyl)-1H-pyrazole-4-carboxamide] | 1.51 µM | > 15 µM | > 15 µM |  |  |
| N-(5-chloro-6-(4-methyl-2H-1,2,3-triazol-2-yl)pyridin-3-yl)-1-(quinolin-5-yl)-5-(trifluoromethyl)-1H-pyrazole-4-carboxamide [Cpd 304] | 0.062 µM |  |  | 3.31 µM | 3.24 µM |
| COc1nccc2c(-n3ncc(C(=O)Nc4cnc(-n5nccn5)c(C#N)c4)c3C(F)(F)F)cccc12 [Cpd 281, N-(5-cyano-6-(2H-1,2,3-triazol-2-yl)pyridin-3-yl)-1-(1-methoxyisoquinolin-5-yl)-5-(trifluoromethyl)-1H-pyrazole-4-carboxamide] | 0.123 µM | 2.57 µM | 3.02 µM |  |  |
| Cn1ncc(-c2ncc(NC(=O)c3cnn(-c4cccc5ncccc45)c3C(F)(F)F)cc2C#N)n1 [Cpd 257, N-(5-cyano-6-(2-methyl-2H-1,2,3-triazol-4-yl)pyridin-3-yl)-1-(quinolin-5-yl)-5-(trifluoromethyl)-1H-pyrazole-4-carboxamide] | 0.234 µM | > 3.2 µM | 0.646 µM |  |  |
| O=C(Nc1cnc(-n2nccn2)c(Cl)c1)c1cnn(-c2cccc3ncccc23)c1Br [Cpd 188, 5-Bromo-N-(5-chloro-6-(2H-1,2,3-triazol-2-yl)pyridin-3-yl)-1-(quinolin-5-yl)-1H-pyrazole-4-carboxamide] | 0.115 µM | 0.046 µM | 0.05 µM |  |  |
| Cc1nc(-n2nccn2)c(Cl)cc1NC(=O)c1cnn(-c2cnc(C(N)=O)c3sccc23)c1C(F)(F)F [Cpd 393, 4-(4-((5-chloro-2-methyl-6-(2H-1,2,3-triazol-2-yl)pyridin-3-yl)carbamoyl)-5-(trifluoromethyl)-1H-pyrazol-1-yl)thieno[2,3-c]pyridine-7-carboxamide] | 0.012 µM | 0.245 µM | 0.126 µM |  |  |
